In paper PMC6811539, “Minute-scale persistence of a GPCR conformation state triggered by non-cognate G protein interactions primes signaling” (Nature Communications, 2019):
“And” between values parts separate entries of the source, which are not always exact repeats. Equal entries are not always repeated. Where two headings read alike, the source gives them in different places. Where a SMILES comes first, the peptide text is derived from it. The star is where a group is joined. Biotin = O=C1N[C@H]2[C@H](CS[C@H]2CCCCC(=O)*)N1

What was measured:
[1] = extent of photocleavage of PC-Qp by MALDI-MS; type: physicochemical
Experimental: Native membranes were prepared from cells expressing β2-mCer and were stored in sucrose-supplemented buffer A as described above (Membrane preparations). […]. Both samples were centrifuged 100,000 × g, 5 min, 4 °C to sediment the membrane. Supernatants were stored on ice for analysis by MS. Control samples containing 50 μM peptide in the buffer were also prepared.
Prior to matrix-assisted laser desorption and ionization time-of-flight MS (MALDI-TOF MS) analysis, the samples were desalted using C18 ZipTips (Millipore Corporation, Billerica, MA). The manufacturer’s standard protocol for peptide clean-up was followed. After elution from the ZipTip, 1 μL of each sample was spotted on a MALDI-TOF 384 spot stainless-steel target (Bruker Daltonics, Billerica, MA) and mixed with 1 μl of α-cyano-4-hydroxy-cinnamic acid (α-CHCA) matrix (15 mg/ml α-CHCA in 50% acetonitrile). Each spot was allowed to dry at room temperature. The target was placed in a Bruker Autoflex Speed MALDI-TOF mass spectrometer (Bruker Daltonics, Billerica, MA) equipped with a Nd-YAG 355 nm pulsed laser. The data were collected in reflectron mode, positive polarity, with an accelerating potential of 19 kV. Each spectrum was the accumulation of 4000 laser shots with complete spot raster of the laser during data collection. External calibration was performed using 0.5 μl α-CHCA and 0.5 μl of peptide standard (part# 206195, Bruker Daltonics, Billerica, MA) with Angiotensin II (monoisotopic mass [MH^+ ] 1046.5418), Angiotensin I (monoisotopic mass [MH^+ ] 1296.6848), SubstanceP (monoisotopic mass [MH^+] 1347.7354), Bombesin (monoisotopic mass [MH^+] 1619.8223), ACTH clip 1–17 (monoisotopic mass [MH^+] 2093.0862), ACTH clip 18–39 (monoisotopic mass [MH^+] 2465.1983), and Somatostatin 28 (monoisotopic mass [MH^+] 3147.4710). The Bruker data files were converted to mzXML files using MSConvertGUI tool in ProteoWizard open-source software. The mzXML files were viewed and analyzed with mMass v5.5 open-source software.

β2-AR SPASM sensors = β2-AR SPASM sensors (Homo sapiens, UniProt P07550); experiment: cAMP accumulation in HEK293T cells expressing β2-AR SPASM sensors (cAMP Glo); type: cell-based; settings: saturating agonist, normalized to β2-AR-(-), mean; for Emax: HEK-293T, read-out: Maximum cAMP (Emax)
Sequence of β2-AR SPASM sensors (P07550 whole entry, one chain of several): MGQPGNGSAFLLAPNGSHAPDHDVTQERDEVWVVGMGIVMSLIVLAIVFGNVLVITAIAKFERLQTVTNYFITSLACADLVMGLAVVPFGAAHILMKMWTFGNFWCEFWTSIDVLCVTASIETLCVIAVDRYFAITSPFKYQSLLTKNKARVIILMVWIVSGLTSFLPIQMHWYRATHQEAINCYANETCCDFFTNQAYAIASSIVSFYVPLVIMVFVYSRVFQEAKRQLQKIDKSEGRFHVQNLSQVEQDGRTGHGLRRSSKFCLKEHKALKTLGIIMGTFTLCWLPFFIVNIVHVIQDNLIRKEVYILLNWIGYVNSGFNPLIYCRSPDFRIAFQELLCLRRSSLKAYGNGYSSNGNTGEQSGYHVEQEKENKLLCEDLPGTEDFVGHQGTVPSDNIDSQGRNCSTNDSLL
Sequence of β2-AR SPASM sensors (P50148 333-359, one chain of several, further chain): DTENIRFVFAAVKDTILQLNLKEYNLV

V1A-R SPASM sensors = experiment: IP1 levels in HEK293T cells expressing V1A-R SPASM sensors; type: cell-based, human; settings: hotspot swapped peptide vs. parent; vasopressin 100 nM
Experimental: HEK293T cells expressing the indicated sensor were collected 28–32 h post transfection, to assess IP1 levels using the IP-One HTRF assay kit (Cisbio). Cells were gently resuspended in their original media, counted using a hemocytometer, and centrifuged (300 × g, 3 min). An appropriate volume of StimB buffer (CisBio: 10 mM Hepes, 1 mM CaCl2, 0.5 mM MgCl2, 4.2 mM KCl, 146 mM NaCl, 5.5 mM glucose, 50 mM LiCl, pH 7.4) was added to reach a density of 3 × 10^6 cells/mL. Cells were incubated at 37 °C for 15 min. Cells were subsequently incubated with or without 100 nM of Arg-vasopressin peptide for 5 min at 37 °C. The manufacturer’s protocol was modified to achieve a high signal-to-noise ratio. […] IP1 FRET spectra were collected in top read format using a FlexStation3 plate reader with a delay of 50 μs and an integration time of 300 μs. […] FRET was calculated from ratio of the emission at […] to the emission at 620 nm. […]
Supplementary Figure 1 - Hot-spot substitutions in Gα peptides affect G protein activation and downstream signaling from V1A-R. (a) Activation of G protein (Gαq) is monitored by the increase in BODIPY fluorescence upon agonist stimulation of membranes harvested from HEK293T cells expressing V1A- R, and reconstituted with purified Gαq. […] Statistically significant differences were assessed by a one- way ANOVA, followed by Tukey’s post-ANOVA test. […]

V1A-R with purified Gαq = experiment: activation of purified Gq (BODIPY-FL-GTPγS) in V1A-R membranes; type: biochemical, human (V1AR); Mus musculus (Gαq); settings: hotspot swapped peptide vs. parent; vasopressin 100 nM
PKC = experiment: cAMP accumulation with PKC inhibitors in Gαq-overexpressing and untransfected HEK293T cells; type: cell-based, human; settings: pretreatment with inhibitor 10 μM; fenoterol 10 μM, forskolin 2 μM
Text: (§1) For concentration–response curves with Gαq overexpression as well as the knockdown experiments, transfected and control cells (untransfected or mock short hairpin RNA transfected) were resuspended to equivalent concentration (4 × 10^6 cells/ml) based on Countess II numbers.

β2-AR-mCer = molecular target: T1, β2-AR-mCer (Homo sapiens, UniProt P07550); experiment: affinity pull-down and release (binding-and-release) assay for Gα peptide–β2-AR interaction; settings: biotinylated peptide 30 μM, β2-mCer 10 nM
T1 construct: expressed in transfected cells; host or cells: native membranes of transiently transfected HEK293T cells
T1 sequence (P07550 whole entry): as the sequence (P07550 whole entry, one chain of several) above
Experimental: Native membranes were prepared from cells expressing β2-mCer and stored in sucrose-supplemented buffer A as described above (Membrane preparations). Membranes were sonicated (3× bursts, 15 s with 1 min pauses) and resuspended in ΔFRET buffer minus Ca^2+ to a concentration of 10 nM receptor based on fluorescence counts. bioQp/bioSp (30 μM) and 100 μM isoproterenol were added and mixed for 5 min. Samples were split into duplicates, one of which was not manipulated in any way to obtain total receptor counts. To the other tube, 20 μl of 0.4 mg/ml streptavidin-coated magnetic beads were added, mixed, and precipitated using a Neodymium disc magnet N52 (20 × 40 mm). Supernatant was removed to a fresh micro-centrifuge tube to monitor fluorescence of receptors not bound to the beads. A solution of 100 μM Qp/Sp was added to the precipitated beads, mixed, and magnetically separated again. The supernatant was collected to determine the released fraction of receptors. Fluorescence of mCer was monitored on a FluoroMax 4 fluorometer (Horiba) using 430 nm excitation (8 nm bandpass) and emission scan from 450 to 500 nm, with the maximum at 475 nm being used for the calculation. Based on total and unbound counts, the amount of receptor bound was calculated (bound = total − unbound) and compared with the counts from the released receptor (% = released/bound). […]

endogenous β2-AR = endogenous β2-AR (Homo sapiens, UniProt P07550); experiment: cell-based; settings: HEK-293T, with forskolin 2 μM, 10 min, mean ± SD
Sequence of endogenous β2-AR (P07550 whole entry): as the sequence (P07550 whole entry, one chain of several) above
Text: as §1

Compound: N-term fragment: N-terminal fragment generated by photocleavage of PC-Qp (DTENIRFVFAAVKDTILQLNLKE)
- N-term fragment cleaved (fraction, MALDI-MS) ([1]; minus UV, replicate 1): 0.33
- N-term fragment cleaved (fraction, MALDI-MS) ([1]; minus UV, replicate 2): 0.24
- N-term fragment cleaved (fraction, MALDI-MS) ([1]; minus UV, replicate 3): 0.38
- N-term fragment cleaved (fraction, MALDI-MS) ([1]; plus UV (350 nm, 2 min), replicate 1): 0.91
- N-term fragment cleaved (fraction, MALDI-MS) ([1]; plus UV (350 nm, 2 min), replicate 2): 0.91
- N-term fragment cleaved (fraction, MALDI-MS) ([1]; plus UV (350 nm, 2 min), replicate 3): 0.92

Compound: CNC[C@H](O)c1ccc(O)c(O)c1 [Epinephrine, epinephrine]
- Maximum cAMP (Emax) (β2-AR SPASM sensors; b2-AR-(-) sensor): 100%
- Maximum cAMP (Emax) (β2-AR SPASM sensors; b2-AR-(Qp) sensor): 182.89%
- Maximum cAMP (Emax) (β2-AR SPASM sensors; b2-AR-(Sp) sensor): 197.09%

Compound: Qp → Sp: Qp mutant L349Q, E355Q, mimicking Sp (DTENIRFVFAAVKDTIQQLNLKQYNLV)
- V1A-R IP1 levels in words (V1A-R SPASM sensors): increased cognate (Qp → Sp > Qp)
- V1A-R G-protein activation in words (V1A-R with purified Gαq): increased cognate (Qp → Sp > Qp)

Compound: CN(C)CCCn1cc(C2=C(c3c[nH]c4ccccc34)C(=O)NC2=O)c2ccccc21 [BimI]
- effect of PKC inhibitor on enhanced cAMP response of Gαq-overexpressing cells (PKC): did not block the enhanced cAMP response

Compound: CC[C@H](C)[C@H](NC(=O)[C@H](CC(N)=O)NC(=O)[C@H](CCC(=O)O)NC(=O)[C@@H](NC(=O)[C@H](CC(=O)O)NC(=O)CCCC[C@@H]1SC[C@@H]2NC(=O)N[C@@H]21)[C@@H](C)O)C(=O)N[C@@H](CCCNC(=N)N)C(=O)N[C@@H](CCCNC(=N)N)C(=O)N[C@H](C(=O)N[C@@H](Cc1ccccc1)C(=O)N[C@@H](CC(N)=O)C(=O)N[C@@H](CC(=O)O)C(=O)N[C@@H](CS)C(=O)N[C@@H](CCCNC(=N)N)C(=O)N[C@@H](CC(=O)O)C(=O)N[C@H](C(=O)N[C@H](C(=O)N[C@@H](CCC(N)=O)C(=O)N[C@@H](CCCNC(=N)N)C(=O)N[C@@H](CCSC)C(=O)N[C@@H](Cc1c[nH]cn1)C(=O)N[C@@H](CC(C)C)C(=O)N[C@@H](CCCNC(=N)N)C(=O)N[C@@H](CCC(N)=O)C(=O)N[C@@H](Cc1ccc(O)cc1)C(=O)N[C@@H](CCC(=O)O)C(=O)N[C@@H](CC(C)C)C(=O)N[C@@H](CC(C)C)C(=O)O)[C@@H](C)CC)[C@@H](C)CC)C(C)C [bioSp] (Biotin-DTENIRRVFNDCRDIIQRMHLRQYELL-OH)
- mean bound (100-Supernatant) (β2-AR-mCer; isoproterenol 100 μM, total incl. nonspecific): 54.8625%
- receptor specifically pulled down (bound) (β2-AR-mCer; nonspecific subtracted, mean): 45% and 45.31%

Compound: CC(Cc1ccc(O)cc1)NCC(O)c1cc(O)cc(O)c1 (centres unmarked) [Fenoterol, fenoterol]
- Emax (β2-AR SPASM sensors; b2-AR-(-) sensor): 97.5%
- Emax (β2-AR SPASM sensors; b2-AR-(Qp) sensor): 171%
- Emax (β2-AR SPASM sensors; b2-AR-(Sp) sensor): 131%
- Emax (endogenous β2-AR; Gαq overexpressing): 138 ± 3.15%
- Emax (endogenous β2-AR; untransfected (Un.)): 94.5 ± 3.05%

Compound: COc1ccc2c(c1)c(C1=C(c3c[nH]c4ccccc34)C(=O)NC1=O)cn2CCCN(C)C [Gö6983]
- effect of PKC inhibitor on enhanced cAMP response of Gαq-overexpressing cells (PKC): did not block the enhanced cAMP response
